From PubChem BioAssay AID256 (DTP/NCI, 2004)
Several values for one entry are separate records, joined by “and”; a condition that tells them apart may be missing. Identical values can stand only once. Inconclusive results and toxic doses are left out.

System: CD2F1 mice, L1210 leukemia ip, survival T/C
Test: NCI In Vivo Anticancer Drug Screen. Data for tumor model L1210 Leukemia (intraperitoneal) in CD2F1 (CDF1) mice
Conditions: higher = longer survival
Summary of the method: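 Compound-dosed mice with transplantable tumor versus matched vehicle controls; endpoint ratio T/C reported.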

SMILES: O=c1[nH]cc(F)c(=O)[nH]1
- T/C (endpoint: mean survival time, dose: 2.5 mg/kg/injection, schedule: Q01DX009 (ip), vehicle: saline): 113 % of control
- T/C (endpoint: mean survival time, dose: 3.75 mg/kg/injection, schedule: Q01DX003 (ip), vehicle: saline): 116 % of control
- T/C (endpoint: mean survival time, dose: 3.75 mg/kg/injection, schedule: Q01DX005 (ip), vehicle: saline): 114 % of control and 122 % of control
- T/C (endpoint: mean survival time, dose: 4.0 mg/kg/injection, schedule: Q03HX016 (ip), vehicle: water): 167 % of control
- T/C (endpoint: mean survival time, dose: 4.0 mg/kg/injection, schedule: Q03HX024 (ip), vehicle: water): 153 % of control
- T/C (endpoint: mean survival time, dose: 5.0 mg/kg/injection, schedule: Q01DX009 (ip), vehicle: saline): 124 % of control
- T/C (endpoint: mean survival time, dose: 7.5 mg/kg/injection, schedule: Q03HX024 (ip), vehicle: saline): 157 % of control
- T/C (endpoint: mean survival time, dose: 8.0 mg/kg/injection, schedule: Q01DX009 (ip), vehicle: water): 151 % of control
- T/C (endpoint: mean survival time, dose: 8.0 mg/kg/injection, schedule: Q03HX016 (ip), vehicle: water): 154 % of control
- T/C (endpoint: mean survival time, dose: 10.0 mg/kg/injection, schedule: Q01DX002 (ip), vehicle: saline): 124 % of control
- T/C (endpoint: mean survival time, dose: 10.0 mg/kg/injection, schedule: Q01DX006 (ip), vehicle: saline): 161 % of control
- T/C (endpoint: mean survival time, dose: 10.0 mg/kg/injection, schedule: Q03HX016 (ip), vehicle: saline): 152 % of control
- T/C (endpoint: mean survival time, dose: 10.8 mg/kg/injection, schedule: Q01DX009 (ip), vehicle: saline): 150 % of control
- T/C (endpoint: mean survival time, dose: 12.0 mg/kg/injection, schedule: Q04DX003 (ip), vehicle: saline): 121 % of control
- T/C (endpoint: mean survival time, dose: 12.5 mg/kg/injection, schedule: Q03HX024 (oral), vehicle: saline): 122 % of control
- T/C (endpoint: mean survival time, dose: 13.3 mg/kg/injection, schedule: Q01DX009 (ip), vehicle: saline sonified): 168 % of control
- T/C (endpoint: mean survival time, dose: 14.0 mg/kg/injection, schedule: Q01DX009 (ip), vehicle: saline sonified): 160 % of control
- T/C (endpoint: mean survival time, dose: 14.0 mg/kg/injection, schedule: Q01DX009 (ip), vehicle: saline with Tween-80): 157 % of control and 172 % of control
- T/C (endpoint: mean survival time, dose: 15.0 mg/kg/injection, schedule: Q01DX005 (ip), vehicle: saline): 158 % of control and 169 % of control
- T/C (endpoint: mean survival time, dose: 16.0 mg/kg/injection, schedule: Q01DX009 (oral), vehicle: saline): 114 % of control
- T/C (endpoint: mean survival time, dose: 16.0 mg/kg/injection, schedule: Q03HX008 (ip), vehicle: water): 163 % of control
- T/C (endpoint: mean survival time, dose: 16.0 mg/kg/injection, schedule: Q03HX024 (ip), vehicle: water): 120 % of control
- T/C (endpoint: mean survival time, dose: 20.0 mg/kg/injection, schedule: Q01DX009 (ip), vehicle: saline sonified): 169 % of control
- T/C (endpoint: mean survival time, dose: 20.0 mg/kg/injection, schedule: Q03DX003 (ip), vehicle: saline): 152 % of control
- T/C (endpoint: mean survival time, dose: 22.5 mg/kg/injection, schedule: Q01DX009 (ip), vehicle: saline): 117 % of control
- T/C (endpoint: mean survival time, dose: 25.0 mg/kg/injection, schedule: Q01DX001 (ip), vehicle: saline): 117 % of control
- T/C (endpoint: mean survival time, dose: 25.0 mg/kg/injection, schedule: Q03HX024 (oral), vehicle: saline): 118 % of control
- T/C (endpoint: mean survival time, dose: 30.0 mg/kg/injection, schedule: Q01DX003 (ip), vehicle: saline): 168 % of control
- T/C (endpoint: mean survival time, dose: 30.0 mg/kg/injection, schedule: Q01DX003 (oral), vehicle: saline): 123 % of control
- T/C (endpoint: mean survival time, dose: 30.0 mg/kg/injection, schedule: Q01DX005 (oral), vehicle: saline): 119 % of control
- T/C (endpoint: mean survival time, dose: 30.0 mg/kg/injection, schedule: Q01DX009 (ip), vehicle: saline sonified): 152 % of control
- T/C (endpoint: mean survival time, dose: 30.0 mg/kg/injection, schedule: Q04DX003 (ip), vehicle: saline sonified): 152 % of control
- T/C (endpoint: mean survival time, dose: 32.0 mg/kg/injection, schedule: Q04DX003 (ip), vehicle: water): 169 % of control
- T/C (endpoint: mean survival time, dose: 32.0 mg/kg/injection, schedule: Q08DX002 (ip), vehicle: water): 154 % of control
- T/C (endpoint: mean survival time, dose: 40.0 mg/kg/injection, schedule: Q04DX003 (ip), vehicle: saline sonified): 165 % of control
- T/C (endpoint: mean survival time, dose: 40.0 mg/kg/injection, schedule: Q04DX003 (ip), vehicle: saline with Tween-80): 160 % of control and 163 % of control and 172 % of control
- T/C (endpoint: mean survival time, dose: 44.0 mg/kg/injection, schedule: Q04DX003 (ip), vehicle: saline): 172 % of control
- T/C (endpoint: mean survival time, dose: 50.0 mg/kg/injection, schedule: Q01DX009 (oral), vehicle: saline): 116 % of control
- T/C (endpoint: mean survival time, dose: 50.0 mg/kg/injection, schedule: Q03HX008 (oral), vehicle: saline): 122 % of control
- T/C (endpoint: mean survival time, dose: 50.0 mg/kg/injection, schedule: Q04DX003 (ip), vehicle: saline): 172 % of control
- T/C (endpoint: mean survival time, dose: 60.0 mg/kg/injection, schedule: Q01DX005 (oral), vehicle: saline): 117 % of control
- T/C (endpoint: mean survival time, dose: 60.0 mg/kg/injection, schedule: Q03HX024 (ip), vehicle: saline): 164 % of control
- T/C (endpoint: mean survival time, dose: 60.0 mg/kg/injection, schedule: Q04DX003 (ip), vehicle: saline sonified): 164 % of control
- T/C (endpoint: mean survival time, dose: 60.0 mg/kg/injection, schedule: Q04DX003 (ip), vehicle: saline with Tween-80): 164 % of control
- T/C (endpoint: mean survival time, dose: 62.5 mg/kg/injection, schedule: Q01DX001 (oral), vehicle: saline): 113 % of control
- T/C (endpoint: mean survival time, dose: 64.0 mg/kg/injection, schedule: Q01DX009 (oral), vehicle: saline): 119 % of control
- T/C (endpoint: mean survival time, dose: 64.0 mg/kg/injection, schedule: Q04DX003 (ip), vehicle: water): 160 % of control
- T/C (endpoint: mean survival time, dose: 64.0 mg/kg/injection, schedule: Q08DX002 (ip), vehicle: water): 164 % of control
- T/C (endpoint: mean survival time, dose: 67.5 mg/kg/injection, schedule: Q04DX003 (ip), vehicle: saline): 150 % of control
- T/C (endpoint: mean survival time, dose: 80.0 mg/kg/injection, schedule: Q03HX024 (ip), vehicle: saline): 176 % of control
- T/C (endpoint: mean survival time, dose: 80.0 mg/kg/injection, schedule: Q04DX003 (ip), vehicle: saline sonified): 160 % of control
- T/C (endpoint: mean survival time, dose: 100.0 mg/kg/injection, schedule: Q08DX002 (oral), vehicle: saline): 151 % of control
- T/C (endpoint: mean survival time, dose: 128.0 mg/kg/injection, schedule: Q04DX003 (ip), vehicle: water): 120 % of control
- T/C (endpoint: mean survival time, dose: 128.0 mg/kg/injection, schedule: Q08DX002 (ip), vehicle: water): 167 % of control
- T/C (endpoint: mean survival time, dose: 132.0 mg/kg/injection, schedule: Q01DX001 (ip), vehicle: saline): 153 % of control
- T/C (endpoint: mean survival time, dose: 166.0 mg/kg/injection, schedule: Q01DX001 (ip), vehicle: saline with Tween-80): 150 % of control
- T/C (endpoint: mean survival time, dose: 200.0 mg/kg/injection, schedule: Q01DX001 (oral), vehicle: saline): 118 % of control
- T/C (endpoint: mean survival time, dose: 200.0 mg/kg/injection, schedule: Q04DX003 (ip), vehicle: saline): 159 % of control
- T/C (endpoint: mean survival time, dose: 256.0 mg/kg/injection, schedule: Q08DX002 (ip), vehicle: water): 120 % of control
- T/C (endpoint: mean survival time, dose: 300.0 mg/kg/injection, schedule: Q01DX001 (ip), vehicle: saline with Tween-80): 153 % of control
- T/C (endpoint: mean survival time, dose: 338.0 mg/kg/injection, schedule: Q01DX001 (ip), vehicle: saline): 150 % of control
- T/C (endpoint: mean survival time, dose: 400.0 mg/kg/injection, schedule: Q04DX003 (ip), vehicle: saline with Tween-80): 117 % of control
- T/C (endpoint: mean survival time, dose: 400.0 mg/kg/injection, schedule: Q04DX003 (ip), vehicle: saline): 161 % of control
- T/C (endpoint: median survival time, dose: 6.48 mg/kg/injection, schedule: Q01DX009 (ip), vehicle: saline): 120 % of control
- T/C (endpoint: median survival time, dose: 7.5 mg/kg/injection, schedule: Q01DX009 (ip), vehicle: saline): 153 % of control
- T/C (endpoint: median survival time, dose: 7.5 mg/kg/injection, schedule: Q## X009 (ip), vehicle: saline): 153 % of control
- T/C (endpoint: median survival time, dose: 10.0 mg/kg/injection, schedule: Q01DX001 (ip), vehicle: saline): 152 % of control
- T/C (endpoint: median survival time, dose: 13.0 mg/kg/injection, schedule: Q04DX002 (ip), vehicle: saline): 121 % of control
- T/C (endpoint: median survival time, dose: 13.0 mg/kg/injection, schedule: Q04DX003 (ip), vehicle: saline): 121 % of control
- T/C (endpoint: median survival time, dose: 14.3 mg/kg/injection, schedule: Q04DX003 (ip), vehicle: saline): 124 % of control
- T/C (endpoint: median survival time, dose: 15.0 mg/kg/injection, schedule: Q01DX005 (ip), vehicle: saline): 165 % of control
- T/C (endpoint: median survival time, dose: 15.0 mg/kg/injection, schedule: Q01DX009 (ip), vehicle: saline): 167 % of control
- T/C (endpoint: median survival time, dose: 15.0 mg/kg/injection, schedule: Q## X009 (ip), vehicle: saline): 167 % of control
- T/C (endpoint: median survival time, dose: 20.0 mg/kg/injection, schedule: Q01DX001 (ip), vehicle: saline): 154 % of control
- T/C (endpoint: median survival time, dose: 21.6 mg/kg/injection, schedule: Q04DX002 (ip), vehicle: saline): 123 % of control
- T/C (endpoint: median survival time, dose: 30.0 mg/kg/injection, schedule: Q01DX009 (ip), vehicle: saline): 173 % of control
- T/C (endpoint: median survival time, dose: 36.0 mg/kg/injection, schedule: Q04DX003 (ip), vehicle: saline): 160 % of control and 167 % of control
- T/C (endpoint: median survival time, dose: 39.6 mg/kg/injection, schedule: Q04DX003 (ip), vehicle: saline): 164 % of control
- T/C (endpoint: median survival time, dose: 40.0 mg/kg/injection, schedule: Q04DX002 (ip), vehicle: saline): 162 % of control
- T/C (endpoint: median survival time, dose: 80.0 mg/kg/injection, schedule: Q04DX002 (ip), vehicle: saline): 166 % of control
- T/C (endpoint: median survival time, dose: 100.0 mg/kg/injection, schedule: Q04DX003 (ip), vehicle: saline): 151 % of control
- T/C (endpoint: median survival time, dose: 300.0 mg/kg/injection, schedule: Q01DX001 (ip), vehicle: Klucel (hydroxypropylcellulose) (HPC)): 174 % of control
